Read-outs that look alike come from different tables or passages of the source. *1 amine or outer side, *2 acyl side, *3 side chain or, on linkers, in order; H or OH if unused. Where a SMILES comes first, the peptide text is derived from it. [ ]: non-standard residue; d: D form. LeuΨ(S-CHOHCH2)Ala = CC(C)C[C@H](N[*:1])[C@@H](O)C[C@@H](C)C(=O)[*:2]
Molecular target: T1, memapsin 2 (Homo sapiens, UniProt P56817)
T1 construct: pET-11 vector-derived residues 1-15 of promemapsin 2-T1 (N, cleaved yes); made in house; host or cells: E. coli
T1 sequence (P56817 41-454 limits assumed): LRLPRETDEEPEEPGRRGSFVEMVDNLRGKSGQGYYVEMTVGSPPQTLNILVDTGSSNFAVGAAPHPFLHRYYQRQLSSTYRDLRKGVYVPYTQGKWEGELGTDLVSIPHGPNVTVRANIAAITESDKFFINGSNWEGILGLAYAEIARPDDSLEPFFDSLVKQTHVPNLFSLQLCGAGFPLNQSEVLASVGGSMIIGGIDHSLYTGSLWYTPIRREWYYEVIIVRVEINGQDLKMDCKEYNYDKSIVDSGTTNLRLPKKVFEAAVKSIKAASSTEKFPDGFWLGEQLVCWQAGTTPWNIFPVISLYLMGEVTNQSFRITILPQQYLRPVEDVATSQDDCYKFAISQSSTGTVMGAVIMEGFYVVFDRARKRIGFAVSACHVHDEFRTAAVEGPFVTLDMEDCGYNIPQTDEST
Assay: Inhibition of memapsin 2 proteolytic activity, fluorogenic substrate FS-2
Format: biochemical
Settings: for Vi/Vo: ratio of initial cleavage velocities of FS-2 with/without compound, enzyme and inhibitor concentrations equal (e.g., about 80 nM, 100 nM)
Summary of the method: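 Inhibitors tested at about 10 nM to 10 μM in pH 4.0 0.1 M sodium acetate containing 10% (v/v) DMSO, after 20 min preincubation at 37 °C with 80 nM self-activated memapsin 2. Substrate-independent Ki derived from apparent Ki via Km and substrate level.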

[1] = Ki, [I] < 100, memapsin 2, [I] < 100 (nM)
[2] = memapsin 2, apparent Ki in presence of substrate FS-2, read-out: Ki app
[3] = memapsin 2, independent of substrate, converted from Ki apparent, read-out: Ki
[4] = memapsin 2, apparent Ki in presence of substrate FS-2
[5] = memapsin 2, independent of substrate, converted from Ki apparent

SMILES | Vi/Vo | Ki [2] | Ki [3] | also measured
CC(C)C[C@H](NC(=O)[C@H](CCS(C)(=O)=O)NC(=O)OCc1ccco1)[C@@H](O)C[C@@H](C)C(=O)N[C@H](C(=O)NCc1ccccc1)C(C)C [MMI-136] | 0.87 |  |  | 
CC(C)C[C@H](NC(=O)[C@@H]1CC(=O)NCCCCOC(=O)N[C@@H](C(C)C)C(=O)N1)[C@@H](O)C[C@@H](C)C(=O)N[C@H](C(=O)NCc1ccccc1)C(C)C [MMI-150] | 0.8 |  |  | 
CSC[C@H](NC(=O)OCc1ccccn1)C(=O)N[C@@H](CC(C)C)[C@@H](O)C[C@@H](C)C(=O)N[C@H](C(=O)NCc1ccccc1)C(C)C [MMI-125] | 0.76 |  |  | 
COCC[C@H](NC(=O)C(Cn1nc(C)cc1C)C(C)C)C(=O)N[C@@H](CC(C)C)[C@@H](O)C[C@@H](C)C(=O)N[C@H](C(=O)NCC(C)C)C(C)C (stereo partly drawn) [MMI-228] |  | 176 nM | 110 nM | 
CC(C)C[C@H](NC(=O)[C@H](C)C[C@H](O)[C@H](CC(C)C)NC(=O)[C@H](CS(C)(=O)=O)NC(=O)OCc1cccnc1)C(=O)NCc1ccccc1 [MMI-143] | 1 |  |  | 
CC(C)C[C@H](NC(=O)[C@H](CC(N)=O)NC(=O)[C@@H](N)C(C)C)[C@@H](O)C[C@@H](C)C(=O)N[C@@H](C)C(=O)N[C@@H](CCC(=O)O)C(=O)O [OM01-1] (H-VN[LeuΨ(S-CHOHCH2)Ala]AE-OH) |  |  |  | Ki (memapsin 2, read-out: Ki): 126 nM
CSCC[C@H](NC(=O)OCn1nc(C)cc1C)C(=O)N[C@@H](CC1CCCC1)[C@@H](O)C[C@@H](C)C(=O)N[C@@H](CC(C)C)C(=O)NCC(C)C [MMI-170] | 1.08 |  |  | 
CSC[C@H](NC(=O)OCc1ccccn1)C(=O)N[C@@H](CC(C)C)[C@@H](O)C[C@@H](C)C(=O)N[C@@H](CC(C)C)C(=O)NCc1ccccc1 [MMI-124] | 0.93 |  |  | 
CSCC[C@H](NC(=O)[C@@H](NC(=O)OC(C)(C)C)C(C)C)C(=O)N[C@@H](CC(C)C)[C@@H](O)C[C@@H](C)C(=O)N[C@H](COCc1ccccc1)C(C)C [MMI-041] |  |  |  | Ki app [4]: N.I.; Ki [5]: N.I.
CSCC[C@H](NC(=O)[C@@H](NC(=O)c1cccc(O)c1C)C(C)C)C(=O)N[C@@H](CC(C)C)[C@@H](O)C[C@@H](C)C(=O)N[C@@H](CC(C)C)C(=O)NCc1ccccc1 [MMI-121] |  | 9550 nM | 5970 nM | 
CC(C)C[C@H](NC(=O)[C@H](CCS(C)(=O)=O)NC(=O)OC(C)(C)C)[C@@H](O)C[C@@H](C)C(=O)N[C@H](C(=O)NCc1ccccc1)C(C)C [MMI-016] |  | 5640 nM | 3530 nM | 
CC(C)C[C@H](NC(=O)[C@H](C)C[C@H](O)[C@H](CC(C)C)NC(=O)[C@H](CS(C)(=O)=O)NC(=O)OCc1ccccn1)C(=O)NCc1ccccc1 [MMI-126] | 0.72 |  |  | 
CSCC[C@H](NC(=O)[C@@H](NC(=O)OC(C)(C)C)C(C)C)C(=O)N[C@@H](CC(C)C)[C@@H](O)C[C@]1(C)CCN([C@H](C(=O)N2CCN(C)CC2)C(C)C)C1=O [MMI-192] |  | 374 nM | 234 nM | 
CSCC[C@H](NC(=O)OCc1ccc(CN(C)C)o1)C(=O)N[C@@H](CC(C)C)[C@@H](O)C[C@@H](C)C(=O)N[C@H](C(=O)NCc1ccccc1)C(C)C [MMI-127] |  | 6840 nM | 4280 nM | 
CC(C)C[C@H](NC(=O)[C@@H]1CC(=O)NC/C=C\COC(=O)N[C@@H](C(C)C)C(=O)N1)[C@@H](O)C[C@@H](C)C(=O)N[C@H](C(=O)NCc1ccccc1)C(C)C [MMI-149] | 0.66 |  |  | 
CSCC[C@H](NC(=O)[C@@H](NC(=O)OC(C)(C)C)C(C)C)C(=O)N[C@@H](CC(C)C)[C@@H](O)C[C@@H](C)C(=O)N1CCC[C@H]1C(=O)NCc1ccccc1 [MMI-044] |  |  |  | Ki app [4]: N.I.; Ki [5]: N.I.
CSCC[C@H](NC(=O)OCn1nc(C)cc1C)C(=O)N[C@@H](CC(C)C)[C@@H](O)C[C@@H](C)C(=O)N[C@@H](CC(C)C)C(=O)N1CCN(C)CC1 [MMI-216] |  | 1200 nM | 753 nM | 
CC(C)C[C@H](NC(=O)[C@H](CCS(C)(=O)=O)NC(=O)[C@@H](NC(=O)OC(C)(C)C)C(C)C)[C@@H](O)C[C@@H](C)C(=O)N[C@H](C(=O)NCc1ccccc1)C1CCCO1 (stereo partly drawn) [MMI-035] |  | 426 nM | 266 nM | 
Cc1c(O)cccc1C(=O)N[C@@H](CCS(C)(=O)=O)C(=O)N[C@@H](CC(C)C)[C@@H](O)C[C@@H](C)C(=O)N[C@@H](CC(C)C)C(=O)NCc1ccccc1 [MMI-123] | 0.61 |  |  | 
CCC[C@H](C[C@H](O)[C@H](CC(C)C)NC(=O)[C@H](CSC)NC(=O)OCc1cccnc1)C(=O)N[C@H](C(=O)NCc1ccccc1)C(C)C [MMI-031] |  | 864 nM | 539 nM | 
CSCC[C@H](NC(=O)OCn1nc(C)cc1C)C(=O)N[C@@H](CC(C)C)[C@@H](O)C[C@@H](C)C(=O)N[C@H](C(=O)NCc1ccco1)C(C)C [MMI-212] |  | 71.1 nM | 44.5 nM | 
CC(C)C[C@H](NC(=O)[C@@H](NC(=O)OC(C)(C)C)C(C)C)[C@@H](O)CN(C)C(=O)[C@H](NC(=O)OCc1ccccc1)C(C)C [MMI-062] |  |  |  | Ki app [4]: N.I.; Ki [5]: N.I.
C=CCNC(=O)C[C@H](NC(=O)[C@@H](NC(=O)OCC=C)C(C)C)C(=O)N[C@@H](CC(C)C)[C@@H](O)C[C@@H](C)C(=O)N[C@H](C(=O)NCc1ccccc1)C(C)C [MMI-148] | 0.46 | 25.9 nM | 16.2 nM | 
CCCCNC(=O)[C@@H](NC(=O)C(C)(C)C[C@H](O)[C@H](CC(C)C)NC(=O)[C@H](CCSC)NC(=O)OCn1nc(C)cc1C)C(C)C [MMI-218] |  | 1800 nM | 1120 nM | Ki [1]: 226 nM
CSCC[C@H](NC(=O)c1cccc(O)c1C)C(=O)N[C@@H](CC(C)C)[C@@H](O)C[C@@H](C)C(=O)N[C@@H](CC(C)C)C(=O)NCc1ccccc1 [MMI-120] | 0.66 | 1800 nM | 1130 nM | Ki [1]: 175 nM
CSCC[C@H](NC(=O)C(C)Cn1nc(C)cc1C)C(=O)N[C@@H](CC(C)C)[C@@H](O)C[C@@H](C)C(=O)N[C@H](C(=O)NCc1ccco1)C(C)C (stereo partly drawn) [MMI-214] |  | 19 nM | 11.9 nM | 
CSCC[C@H](NC(=O)OCc1cccnc1)C(=O)N[C@@H](CC(C)C)[C@@H](O)C[C@@H](C)C(=O)N[C@H](C(=O)NCc1ccccc1)C(C)C [MMI-039] |  | 1400 nM | 873 nM | 

Second part, led by results:

Vi/Vo | Ki [2] | Ki [3] | SMILES | also measured
 | 1580 nM | 988 nM | COc1ccccc1C(=O)N[C@@H](CCSC)C(=O)N[C@@H](CC(C)C)[C@@H](O)C[C@@H](C)C(=O)N[C@@H](CC(C)C)C(=O)NC(C)C [MMI-207] | Ki [1]: 1830 nM
0.9 |  |  | CSCC[C@H](NC(=O)[C@@H](NC(=O)OC(C)(C)C)C(C)C)C(=O)N[C@@H](CC(C)C)[C@@H](O)C[C@@H](C)C(=O)N[C@@H](C(=O)NCc1ccccc1)[C@@H](C)O [MMI-072] | 
 | 9040 nM | 5650 nM | CSCC[C@H](NC(=O)OC(C)(C)C)C(=O)N[C@@H](CC(C)C)[C@@H](O)C[C@@H](C)C(=O)N[C@H](C(=O)NCc1ccccc1)C(C)C [MMI-015] | 
0.75 |  |  | CSCC[C@H](NC(=O)[C@@H](NC(=O)OC(C)(C)C)C(C)C)C(=O)N[C@@H](CC(C)C)[C@@H](O)C[C@H](C)NC(=O)[C@@H](NC(=O)OCc1ccccc1)C(C)C [MMI-168] | 
 | 223 nM | 139 nM | CSCC[C@H](NC(=O)[C@@H](NC(=O)OC(C)(C)C)C(C)C)C(=O)N[C@@H](CC(C)C)[C@@H](O)C[C@@H](C)C(=O)N[C@H](C(=O)NCc1ccccc1)C1CCCO1 (stereo partly drawn) [MMI-034] | 
0.09 | 0.52 nM | 0.33 nM | CSCC[C@H](NC(=O)[C@H](CC(C)C)NC(=O)OC(C)(C)C)C(=O)N[C@@H](CC(C)C)[C@H](O)C[C@H](C)C(=O)N[C@H](C(=O)NCc1ccccc1)C(C)C [MMI-133] | 
0.19 | 4.15 nM | 2.59 nM | CCCCNC(=O)[C@H](CC(C)C)NC(=O)[C@H](C)C[C@H](O)[C@H](CC(C)C)NC(=O)[C@H](CCSC)NC(=O)[C@H](CC(C)C)NC(=O)OC(C)(C)C [MMI-160] | 
 | 1300 nM | 812 nM | COc1cccc(C(=O)N[C@@H](CCSC)C(=O)N[C@@H](CC(C)C)[C@@H](O)C[C@@H](C)C(=O)N[C@@H](CC(C)C)C(=O)NC(C)C)c1 [MMI-209] | 
 | 63300 nM | 40200 nM | CSCC[C@H](NC(=O)OC(C)(C)C)C(=O)N[C@@H](CC(C)C)[C@@H](O)C[C@@H](C)C(=O)N[C@@H](C)C(=O)NCc1ccccc1 [MMI-006] | 
0.08 | 0.524 nM | 0.33 nM | CSCC[C@H](NC(=O)[C@H](CC(C)C)NC(=O)OC(C)(C)C)C(=O)N[C@@H](CC(C)C)[C@@H](O)C[C@@H](C)C(=O)N[C@@H](CC(C)C)C(=O)NC(C)C [MMI-158] | 
 | 1420 nM | 889 nM | CSCC[C@H](NC(=O)OC(C)(C)Cn1nc(C)cc1C)C(=O)N[C@@H](CC(C)C)[C@@H](O)C[C@@H](C)C(=O)N[C@@H](CC(C)C)C(=O)NC(C)C [MMI-219] | 
 | 73.6 nM | 46 nM | CSCC[C@H](NC(=O)[C@@H](NC(=O)OC(C)(C)C)C(C)C)C(=O)N[C@@H](CC(C)C)[C@@H](O)C[C@@H](C)C(=O)N[C@@H](C)C(=O)NCc1ccccc1 [MMI-008] | 
 | 65.5 nM | 40.9 nM | CSC[C@H](NC(=O)[C@@H](NC(=O)OC(C)(C)C)C(C)C)C(=O)N[C@@H](CC(C)C)[C@@H](O)C[C@@H](C)C(=O)N[C@H](C(=O)NCc1ccccc1)C(C)C [MMI-025] | 
0.87 |  |  | CSCCC(NC(=O)[C@@H](NC(=O)OC(C)(C)C)C(C)C)C(=O)N[C@@H](CC(C)C)[C@@H](O)C[C@@H](C)C(=O)N[C@H](C(=O)NCc1ccccc1)[C@H](C)O (stereo partly drawn) [MMI-081] | 
0.6 | 194 nM | 121 nM | CSCC[C@H](NC(=O)[C@@H](NC(=O)OC(C)(C)C)C(C)C)C(=O)N[C@@H](CC(C)C)[C@@H](O)C[C@@H](C)C(=O)N[C@@H](CC(C)C)C(=O)N1CCN(C)CC1 [MMI-184] | Ki [1]: 64 nM
